Data as given in patent US5656721A, “Peptide derivatives” (Sandoz Ltd., priority 1986, dated 1997).
Like-named read-outs stand apart in the source and are kept apart here. Values belong to the molecule of their own block, whether it stands above or below them. Starred links: 1 amine or outer side, 2 acyl side, 3 side chain; linkers in the order of their positions; H or OH if unused. Positions of bridges follow the written chain, without caps; N, C: chain ends. Non-standard residues stand in square brackets, D forms with d. Residues, ends and D or L forms follow the SMILES beside them. X1 = O=C([C@@H](Cc1ccccc1)N(C[C@@]1(O)OC[C@@H](O)[C@@H](O[C@H]2O[C@H](CO)[C@@H](O)[C@H](O)[C@H]2O)[C@@H]1O)[*:1])[*:2]; X3 = O=C([C@@H](Cc1ccccc1)N(C[C@@]1(O)OC[C@@H](O)[C@@H](O)[C@@H]1O)[*:1])[*:2]; X2 = O=C([C@H](CS[*:3])N(C[C@@]1(O)OC[C@@H](O)[C@@H](O)[C@@H]1O)[*:1])[*:2]; Thr(ol) = C[C@@H](O)[C@H](N)CO

Experiments:
GH level in the serum [1] = type: in vivo, rats
Protocol: Male rats are decapitated and blood is collected 1 hour after administering the GH secrection inhibiting compound in several logarithmically spaced doses. The GH level in the serum is determined means of RIA. In this test, these compounds of the invention are active at doses from about 0.02 to about 30 microgram/kg s.c.

[2] = tested on: GH (growth hormone) secretion; experiment: GH concentration in blood of fasted rhesus monkeys after p.o. administration; type: in vivo; details: for duration of GH lowering effect: p.o., example 2 at 0.1 mg/kg, lowering by at least 50 per cent
Protocol: Compounds of the invention which inhibit GH (growth hormone) secretion, especially the compounds of formula VIII, and more especially compounds of formula VIII a to f, and reduce the GH concentrations in the blood, may be tested as follows: Fasted rhesus monkeys (at least 5 monkeys) in primate chairs receive the compound of the invention in a piece of banana as vehicle. The compounds are administered at a dose of from about 0.1 mg/kg to about 10 mg/kg p.o. Blood is taken from the […] via a catheter. The GH concentration in the blood is measured by RIA (radio immunoassay).

[3] = Bioavailability test, oral or intravenous administration, blood detection by radioimmunoassay; type: in vivo, dogs
From the text: The compounds of the invention may be compared with the unmodified peptides in standard bioavailability tests.
The compounds of the invention, for example, may be detected in the blood plasma for a longer period after administration than the unmodified peptides, as indicated in standard bioavailability experiments.
The compounds of the invention and the unmodified peptide may be administered to for example dogs in a single dose sufficient to produce a therapeutic effect by oral or intravenous administration.
Doses used are those which permit the peptide or a metabolite thereof to be detected in the blood. Detection may be effected in conventional manner, e.g. by radioimmunoassay.

gastric acid secretion = experiment: Gastric acid secretion in fasted rats with stomach fistula; type: in vivo; details: for duration of increased stomach pH / pH of the stomach juice reached: by stomach tube
Protocol: The activity of these compounds is observed in e.g. the following test: GH secretion inhibiting compounds of the invention are administered to fasted rats with fistula implanted in their stomach in doses from about 0.05 mg/kg to about 5 mg/kg by stomach tune. After 1 hour the fistula is opened. The stomach Juice is collected in 30 minute periods. The collected volumes are registered and the acid concentration determined.

[4] = Elimination through bile and urine in anaesthetized cannulated rats after s.c. administration; details: male, rat, in vivo, sc, 10 microgram/kg
Protocol: Additionally the compounds of the invention advantageously are eliminated to a greater extent through the kidneys. This may be observed in standard tests.
Fasted Male rats (225-375 g) are administered orally with water (50 ml/kg). After 30 minutes the animals are anaesthetized with e.g. Inactin (100 mg/kg i.p.). The bile duct and bladder are cannulated. Both V. jugularis are exposed. In one vein an infusion of glucose 5% with ethanol 1% is administered (5 ml/hr) to stimulate diuresis. The other vein is used to take blood samples (0.5 ml) every hour over 4 hours.
The compound of the invention and the unmodified peptide is administered s.c. at a dose of from about 10 to about 1000 microgram/Kg. The concentration of the compound is determined in conventional manner e.g. by RIA.
In the above test for example the following results have been obtained with the example 2 compound and octreotide at a dose of 10 microgram/kg: […]

[5] = Absorption on oral administration, plasma levels by RIA; type: in vivo, OFA rats; details: OFA, rat, 10 mg/kg; for level at 0.25 h: 15 mins., read-out: Rat plasma levels following oral administration, 15 mins.; for level at 0.5 h: 30 mins., read-out: Rat plasma levels following oral administration, 30 mins.; for level at 1 h: 60 mins., read-out: Rat plasma levels following oral administration, 60 mins.
Protocol: Improved absorption on oral administration may be detected for the compounds of the invention as follows:
The compound of the invention and the unmodified analogue are administered orally to OFA rats (e.g. 10 mg/kg). After definite periods of time, e.g. 15, 30 and 60 minutes, blood samples are collected, These are analysed for their drug content by e.g. RIA.

GH level in the serum [6] = experiment: GH-reducing activity in male rats having oestradiol implants; type: in vivo; details: oestradiol-implanted male rats
Protocol: The GH-reducing activity of these compounds is also observed after oral application to male rats having oestradiol implants. In this test there are relatively small variations in the GH level, The test is carried out as follows:
A loop (length 50 mm .0. 3 mm) of silastic with 50 mg of oestradiol is implanted under ether anaesthesis under the dorsal skin of male rats which have a weight of ca. 300 g. At various times (1 to 6 months later), these animals are used repeatedly for tests. The test substance is administered either s.c. or orally.
Directly before, as well as at various times after administration of the substance, ca. 0.8 ml of blood is removed from the retro-orbital plexus. It is centrifuged and the GH level in the serum is determined by RIA.

[7] = tested on: calcium level in the blood; experiment: Hypocalcemic activity, calcium level in the blood after i.v. administration; type: in vivo; details: dogs, 5 μg/kg
From the text: The sugar derivatives of calcitonin and of calcitonin analogues or derivatives according to the invention, more especially the derivatives of formula X reduce the calcium plasma level. Moreover, they are functional antagonists of the parathormone, and effect a positive calcium balance in the bones. The hypocalcemic activity of the new compounds may be measured in known manner, e.g. according to the method of M. Azria et al., reported in the Calcitonin 1984 Symposium, 24th October, Milan and published as "Short Communication" in "Current Clinical Practice Series" No. 42, Excerpta Medica 1986, page 104. In this method, a Ca^2+ -ion selective electrode is used, so that the content of calcium ions in the blood of young rabbits or dogs may be continuously measured. The compounds are administered i.v. at a dosage of from about 0.1 to about 10 micrograms/kg, e.g. conforming to ca. 1 international unit per kg. […]
It has for example been determined that each of the compounds of examples 37 and 38 have a duration of action that is much longer than with the unmodified peptide, when administered i.v. to dogs (5 μg/kg).

[8] = s.c., male rats, 1 hour after administration

Molecule: C[C@@H](O)[C@@H]1NC(=O)[C@H](CCCCN)NC(=O)[C@@H](Cc2c[nH]c3ccccc23)NC(=O)[C@H](Cc2ccccc2)NC(=O)[C@@H](NC(=O)[C@@H](Cc2ccccc2)NC[C@@]2(O)OC[C@@H](O)[C@@H](O)[C@@H]2O)CSSC[C@@H](C(=O)N[C@H](CO)[C@@H](C)O)NC1=O [Example 1] (H-[X3]CF[dW]KTC[Thr(ol)]; disulfide 2-7)
ID50 (amount required to lower the GH content by 50%) (GH level in the serum [1]; rat, in vivo, sc): 0.045 microgram/kg

elimination half-life ([3]; intravenous administration): about 2,3 hours
blood concentration on oral administration compared with octreotide ([3]; oral administration, relative to octreotide): ten fold higher
absolute bioavailability on the basis of the AUC, relative to octreotide ([3]; orally and intravenously administered, relative to octreotide): 5 times
dose excreted ([4]; Percentage eliminated through Bile): 1.6%
dose excreted ([4]; Percentage eliminated through Urine): 36%
Molecule: C[C@@H](O)[C@@H]1NC(=O)[C@H](CCCCN)NC(=O)[C@@H](Cc2c[nH]c3ccccc23)NC(=O)[C@H](Cc2ccccc2)NC(=O)[C@@H](NC(=O)[C@@H](Cc2ccccc2)NC[C@@]2(O)OC[C@@H](O)[C@@H](O[C@H]3O[C@H](CO)[C@@H](O)[C@H](O)[C@H]3O)[C@@H]2O)CSSC[C@@H](C(=O)N[C@H](CO)[C@@H](C)O)NC1=O [Example 2, N^α -[α-glucosyl(1-4)-dioxyfructosyl)-SMS] (H-[X1]CF[dW]KTC[Thr(ol)]; disulfide 2-7)
lowering of GH secretion ([2]; 0.1 mg/kg p.o.): at least 50 per cent
duration of GH lowering effect [2]: > 10 h
ID50 (amount required to lower the GH content by 50%) (GH level in the serum [1]; [8]): 0.190 microgram/kg
duration of increased stomach pH (gastric acid secretion): 3,5 hours
pH of the stomach juice reached (gastric acid secretion): 6-8 pH
activity relative to cimetidine (gastric acid secretion; compared with cimetidine): at least 60 times

Molecule: C[C@@H](O)[C@@H]1NC(=O)[C@H](CCCCN)NC(=O)[C@@H](Cc2c[nH]c3ccccc23)NC(=O)[C@H](Cc2ccccc2)NC(=O)[C@@H](NC(=O)[C@@H](Cc2ccccc2)NC(=O)[C@H]2OC(O)[C@H](O)[C@@H](O)[C@@H]2O)CSSC[C@@H](C(=O)N[C@H](CO)[C@@H](C)O)NC1=O (stereo partly shown) [Example 21]
ID50 (amount required to lower the GH content by 50%) (GH level in the serum [1]; rat, in vivo, sc): 0.3 microgram/kg

level at 0.25 h [5]: 11.8 ng/mL
level at 0.5 h [5]: 6.98 ng/mL
level at 1 h [5]: 3.98 ng/mL
Molecule: CC[C@H](C)[C@@H]1NC(=O)[C@H](Cc2ccc(O)cc2)NC(=O)[C@@H](NC[C@@]2(O)OC[C@@H](O)[C@@H](O)[C@@H]2O)CSSC[C@@H](C(=O)N2CCC[C@H]2C(=O)N[C@@H](CC(C)C)C(=O)NCC(N)=O)NC(=O)[C@H](CC(N)=O)NC(=O)[C@H](CCC(N)=O)NC1=O [Example 44, [N-deoxy-fructosyl-Cys^1]-oxytocin] (H-[X2]YIQNCPLG-NH2; disulfide 1-6; C-terminus assumed)

Molecule: C[C@@H](O)[C@@H]1NC(=O)[C@H](CCCCN)NC(=O)[C@@H](Cc2c[nH]c3ccccc23)NC(=O)[C@H](Cc2ccccc2)NC(=O)[C@@H](NC(=O)[C@H](N)Cc2ccccc2)CSSC[C@@H](C(=O)N[C@H](CO)[C@@H](C)O)NC1=O [Octreotide, reference compound]
duration of GH lowering effect [2]: 5 h
half-life ([3]; dog, blood, intravenous administration, read-out: elimination half-life (converted)): ~30 min
duration of increased stomach pH (gastric acid secretion): 2 hours
pH of the stomach juice reached (gastric acid secretion): 6-7 pH
ID50 p.o. (GH level in the serum [6]): 1400 microgram/kg
dose excreted ([4]; rats, 10 microgram/kg s.c., read-out: Percentage eliminated through Bile): 22%
dose excreted ([4]; rats, 10 microgram/kg s.c., read-out: Percentage eliminated through Urine): 19%

Molecule: C[C@H](N)C(=O)NCC(=O)N[C@H]1CSSC[C@@H](C(=O)O)NC(=O)[C@H](CO)NC(=O)[C@H]([C@@H](C)O)NC(=O)[C@H](Cc2ccccc2)NC(=O)[C@H]([C@@H](C)O)NC(=O)[C@H](CCCCN)NC(=O)[C@H](Cc2c[nH]c3ccccc23)NC(=O)[C@H](Cc2ccccc2)NC(=O)[C@H](Cc2ccccc2)NC(=O)[C@H](CC(N)=O)NC(=O)[C@H](CCCCN)NC1=O [natural stomatostatin, reference compound]
ID50 (amount required to lower the GH content by 50%) (GH level in the serum [1]; [8]): 93 microgram/kg

level at 0.25 h [5]: 7.53 ng/mL
level at 0.5 h [5]: 3.6 ng/mL
level at 1 h [5]: 2.55 ng/mL
Molecule: CC[C@H](C)[C@@H]1NC(=O)[C@H](Cc2ccc(O)cc2)NC(=O)[C@@H](N)CSSC[C@@H](C(=O)N2CCC[C@H]2C(=O)N[C@@H](CC(C)C)C(=O)NCC(N)=O)NC(=O)[C@H](CC(N)=O)NC(=O)[C@H](CCC(N)=O)NC1=O [oxytocin, reference compound]

Molecule: N^α -isocaproyl-des(1-4)-[Ala^7,Nε-(1-deoxyfructosyl)-Lys^11,1 8 ]salmon Calcitonin [Example 37]
duration of action compared with the unmodified peptide [7]: much longer
reduction in the calcium level in the blood after 6 hours [7]: still as pronounced as after 3 hours

Molecule: N^α -isocaproyl-des-(1-4)-[Ala^7, N^κ -(α-D-glucosyl-(1-4)-deoxyfructosyl)-Lys^11,18 ]salmon Calcitonin [Example 38]
duration of action compared with the unmodified peptide [7]: much longer
reduction in the calcium level in the blood after 6 hours [7]: still as pronounced as after 3 hours
